Reference: patent US7947312B2, “Method of preparation and composition of a water soluble extract of the bioactive component of the plant species Uncaria for enhancing immune, anti-inflammatory, anti-tumor and DNA repair processes of warm blooded animals” (priority 2002, dated 2011)

Key:
IκBα = experiment: Western blotting of IκBα and phosphorylated IκBα in LPS-stimulated 70Z/3 cells; format: cell-based, mouse; settings: QA 2 mg/ml or PDTC 100 μM
Protocol: FIGS. 5C and 5D illustrate 70Z/3 cells (5×10^6) that were pre-treated with QA (2 mg/ml) or with PDTC (100 μM) as a positive control for two hours and thereafter stimulated with LPS (25 μg/ml) for the indicated time. Cytoplasmic extracts equalized for protein concentration were analyzed by western blotting using IκBα-specific antibodies. One representative experiment out of three (FIG. 5C) and one representative experiment out of two (FIG. 5D) are presented.
Preparation of cell extracts: The 70Z/3 cells were pretreated with QA (1 or 2 mg/ml) or with PDTC for 2 hours before they were stimulated with LPS for various time points. Whole cell extracts from the 70Z/3 cells (1×10^6) were prepared for analysis of the NF-κB signaling pathway. The cells were washed twice in PBS, resuspended in lysis buffer (75 mM Tris-HCl (pH 8.0), 100 mM NaCl, 5 mM KCl, 3 mM MgCl2, 2% NP-40, 1 mM PMSF and a protease inhibitor cocktail) (Roche Diagnostics Scandinavia AB) and incubated on ice for 10 min. The cell debris was pelleted and the supernatants were stored at −70° C. until Western Blot was performed.
Western blotting: Cellular extracts from 70Z/3 cells were separated on a 10% SDS polyacrylamide gel and the proteins were transferred to a nylon membrane. After blocking overnight in 5% dry fat-free milk in TBST, the membrane was incubated for 2 hrs with primary antibodies specific either to IκBα or to phosphorylated IκBα (both from Cell Signaling Technology Inc, Beverly, Mass.). The membranes were thereafter washed three times in TBST, and incubated with HRP-conjugated goat anti-rabbit antibodies (Amersham Pharmacia). The membranes were washed three times and chemoluminescence was detected using the ECL-reagent (Amersham Pharmacia) and x-ray film (CEA AB, Strängnäs, Sweden).

[1] = tested on: HL-60 human leukemic cells; experiment: In vitro cytotoxicity in HL-60 cells, MTT assay (Table 2); format: cell-based
Protocol: In Table 2, the in vitro cytotoxicity of the various components were determined in HL-60 human leukemic cells using the MTT assay and calculation of IC50 values as described in detail elsewhere. Quinic acid ester content was determined by the Bartos method (Bartos, 1980). […] The quinic acid traveling between Rf=0.2-0.3 was eluted from the TLC plates with 1% aqueous ammonia and the relative quantity estimated by absorption at 200 nm as ± being less than 0.050 and “++++” denoting the highest amount detected, with a decrease in the number of “+” signs corresponding to a decrease in the amount of QA detected.

[2] = tested on: human HL-60 leukemic cells; experiment: In vitro growth inhibition by QA salts in cultured HL-60 cells, MTT, 72 hr (FIG. 8); format: cell-based; settings: HL-60 cells
Protocol: QA was purchased from Sigma (>99%). QA salts were synthesized by neutralization with the appropriate base, i.e., NH4OH, NaOH, Ca(OH)2, Zn(OH)2, LiOH, KOH, lysine or histidine. Serial dilutions of test compounds were added to human HL-60 leukemic cells (0.05×10^6 cells/ml) in 96-well, flat bottomed microtiter plates to give final concentrations in the cultures up to 3000 μg/ml. The plates were incubated for 72 hr at 37 C, pulsed with 20 μl MTT (5 mg/ml) for 3 hr, and the color estimated spectrophotometrically at 540 nm as described previously. (Schweitzer, C M et al. Spectrophotometric determination of clonogenic capacity of leukemic cells in semisolid microtiter culture systems. Experimental Hematology 21: 573-578, 1993). IC50 values were calculated and compared based on the live/dead ratio of cells.

HL-60 W6899 cells = experiment: HL-60 bioassay, microculture 5 days, clonogenicity estimated by MTT assay (Table 1); format: cell-based, human; settings: parameters are approximations
Protocol: An assay of biological activity of C-MED-100®'s active ingredient is prepared as follows: HL-60 […] cells are exposed in microculture at 5000 cells per well (96-well plates) for 5 days at 37 ? C. in a CO2 incubator. After incubation, the cells are washed with saline and clonogenicity estimated by MTT assay.

[3] = Acid and base hydrolysis of QAL and QA measured by Bartos reaction (Table 3); format: physicochemical; settings: 500 μg/test
Source text: To further characterize the QA analogs as the active ingredients in C-MED-100® in vitro, we determined the influence of base hydrolysis on the chemistry and biological activity of C-MED-100®. QAL is in fact a cyclic ester of QA, and as such it is an example representing the general class of QA esters. Elution from silica gel with 1% ammonia were the mandated chemical conditions necessary to remove the QA analog (i.e., active ingredient) from silica gel, which in turn favored the base hydrolysis of QA esters such as QAL to QA. If so, then identification of QA after base hydrolysis from the elution of silica gel, would then be consistent with the natural occurrence in C-MED-100® of a QA ester at Rf=0.2-0.3. […] It is quite clear that either strong acid or base treatment converted QAL to QA, and left only QA remaining, thus supporting the fact that the isolation of QA from C-MED-100® after base elution from silica gel was likely to have been originally present as a QA ester.

S=C(S)N1CCCC1 [PDTC, pyrollidine dithiocarbamate, reference compound]
phosphorylation of IκBα (IκBα): potently inhibited | LPS-induced breakdown of IκBα (IκBα; 2 h pretreatment): inhibits both the breakdown of IκBα and its resynthesis

O=C([O-])C1(O)CC(O)C(O)[C@H](O)C1.[Na+] (some centres unmarked) [Quinic acid (QA) sodium salt]
HL-60 MTT IC50 ([1]; no base hydrolysis): 1500 µg/mL | in vitro cytotoxicity compared to C-MED-100 (FIG. 8) [2]: in vitro cytotoxicity comparable to that of C-MED-100®

O=C1O[C@@H]2C[C@@]1(O)C[C@@H](O)[C@H]2O [QAL #1 batch syn., quinic acid lactone]
HL-60 MTT IC50 ([1]; no base hydrolysis): 1200 µg/mL

O=C1O[C@@H]2C[C@@]1(O)C[C@@H](O)[C@H]2O [Quinic acid lactone, quinic acid lactone]
Bioassay after 1% aqueous ammonia IC50 HL-60 cells (HL-60 W6899 cells; after 1% aqueous ammonia): >3000 µg/mL | Bioassay efficacy using IC50 in HL-60 cells (HL-60 W6899 cells): 80 µg/mL | HL-60 MTT IC50 ([1]; no base hydrolysis, listed as QAL #2 batch syn.): >2300 µg/mL | HL-60 MTT IC50 ([1]; sample treated +2 M NaOH, 2 hr): 1600 µg/mL | % Degraded (Bartos Reaction A490 nm) ([3]; 1M NaOH): 74.1% | % Degraded (Bartos Reaction A490 nm) ([3]; 1N HCl): 58.2%
